From paper PMC8216263 (Pharmaceutical Biology, 2021)
Read-outs that look alike come from different tables or passages of the source.

How the values were obtained:
[1] = Single- and multiple-dose plasma pharmacokinetics of GA and PCA after oral RLQ in healthy subjects; assay type: in vivo, human; conditions: for AUC(0-inf) / AUC(0-t) / Vd/F / k el / half-life: 8 g; for Vd/F: read-out: Vz/F; for k el: read-out: ke (converted)
Protocol: The study protocol was approved by the Ethics Committee of the Second Affiliated Hospital of Tianjin University of Traditional Chinese Medicine. […] Subjects were offered standard meals at 4 and 10 h after dosing. Water was not permitted during the hour before and the hour after dosing, except for 240 mL administered with dosing; additional water intake was allowed at all other times.
In the single-dose study, 8 g of RLQ was administered orally on day 1. A 7-d washout time was designed between single-dose and multiple-dose pharmacokinetic studies. In the multiple-dose study, subjects received multiple doses of RLQ (8 g, t.i.d.) for seven consecutive days from day 8 to day 14 and a single dose of RLQ (8 g) on the morning of day 15. […] Additional pre-dose samples were collected in the morning on days 12, 13 and 14. […] All samples were stored at −80 °C until analysis.
(§1) All analytes were extracted from plasma and urine samples by simple protein precipitation extraction method using acetonitrile. Briefly, 5 µL of internal standard solution and 300 μL of acetonitrile were added to the spiked blank matrix (100 μL) and vortexed for 3 min and then centrifuged at 13,000 × g for 10 min. The supernatant was transferred and dried using a flow of nitrogen. The residue was re-dissolved in 100 µL of 10% methanol solution containing 0.1% formic acid. An aliquot of 5 µL solution was injected into the LC-MS/MS system for analysis.
The chromatographic separation was performed on an Acquity Ultra Performance LC instrument (Waters, Milford, MA) with a gradient programme in an ACQUITY UPLC BEH C18 column (2.1 mm × 100 mm, 1.7 μm). […] The injection volume was 2 µL. The mass spectrometry analysis was performed on an AB Sciex Triple Quad 5500 MS (Framingham, MA) equipped with an ESI source.
The peak plasma concentration (Cmax) and time to reach the peak plasma concentration (Tmax) were calculated from the actual plasma concentration data. The area under the plasma concentration-time curve from zero to the last measurable concentration (AUC0–t) was calculated via the linear trapezoidal rule. AUC0–∞ was calculated using the following formula: AUC0–∞ = AUC0–t + Ct/ke, where Ct is the last plasma concentration measured. […] The accumulation index was calculated as AUCss/AUC0–t.

[2] = Urinary excretion of GA and PCA after oral RLQ in healthy subjects; assay type: in vivo, human; conditions: for fraction unbound / dose excreted: human, urine, oral, 8 g; for fraction unbound: urine within 24 h, read-out: Fu (fraction of administered dose excreted in the urine); for dose excreted: abstract summary, read-out: 24 h urine recovery rate
Protocol: In the single-dose study, 8 g of RLQ was administered orally on day 1. A 7-d washout time was designed between single-dose and multiple-dose pharmacokinetic studies. In the multiple-dose study, subjects received multiple doses of RLQ (8 g, t.i.d.) for seven consecutive days from day 8 to day 14 and a single dose of RLQ (8 g) on the morning of day 15. On days 1 and 15, blood samples (3 mL) were collected from the antecubital vein catheter before drug administration and at 0.08, 0.17, 0.33, 0.5, 0.75, 1, 1.5, 2, 3, 4, 6, 8, 12 and 24 h after dosing. Additional pre-dose samples were collected in the morning on days 12, 13 and 14. Urine samples were collected over a 12 h interval before dosing and at the following time intervals thereafter: 0–2, 2–5, 5–8, 8–12 and 12–24 h. All samples were stored at −80 °C until analysis.
as §1
The GA and PCA concentrations were determined using a validated LC-MS/MS method with some modifications (Ma et al. [2015]). The chromatographic separation was performed on an Acquity Ultra Performance LC instrument (Waters, Milford, MA) with a gradient programme in an ACQUITY UPLC BEH C18 column (2.1 mm × 100 mm, 1.7 μm). The gradient programme was performed with the mobile phase (0.3 mL/min) consisting of 0.1% formic acid aqueous solution (A) and acetonitrile (B) as follows: 97% A (0–8.5 min), 60% A (8.7–11 min), 10% A (11.5–13.5 min) and 97% A (14–15 min). The injection volume was 2 µL. The mass spectrometry analysis was performed on an AB Sciex Triple Quad 5500 MS (Framingham, MA) equipped with an ESI source. The quantitative analyses of GA, PCA and chloramphenicol were performed in a negative mode by multiple reaction monitoring (MRM) with the ion transitions of m/z 169.0→125.1, 153.1→109.0 and 321.1→152.1, respectively.
Pharmacokinetic parameters of GA and PCA were estimated with a non-compartmental method using Phoenix WinNonlin version 6.4 (Certara, Princeton, NJ). The peak plasma concentration (Cmax) and time to reach the peak plasma concentration (Tmax) were calculated from the actual plasma concentration data. The area under the plasma concentration-time curve from zero to the last measurable concentration (AUC0–t) was calculated via the linear trapezoidal rule. AUC0–∞ was calculated using the following formula: AUC0–∞ = AUC0–t + Ct/ke, where Ct is the last plasma concentration measured. The terminal elimination half-life (t1/2) was calculated as 0.693/ke, and the total clearance (CL/F) was calculated as dose/AUC0–∞. The accumulation index was calculated as AUCss/AUC0–t.

[3] = both sexes, human, plasma, oral, human plasma, multiple dose RLQ 8 g
[4] = both sexes, human, plasma, oral, human plasma, multiple dose RLQ 8 g, read-out: AUC0–t
[5] = both sexes, human, plasma, oral, human plasma, single dose RLQ 8 g
[6] = both sexes, human, plasma, oral, human plasma, single dose RLQ 8 g, read-out: AUC0–t
[7] = both sexes, human, plasma, oral, multiple dose RLQ 8 g
[8] = both sexes, human, plasma, oral, multiple dose RLQ 8 g, read-out: t1/2 (converted)
[9] = both sexes, human, plasma, oral, single dose RLQ 8 g
[10] = both sexes, human, plasma, oral, single dose RLQ 8 g, read-out: t1/2 (converted)
[11] = both sexes, human, plasma, oral, single dose RLQ 8 g, median (range), read-out: tmax
[12] = both sexes, human, plasma, po, abstract summary, oral RLQ, read-out: half-life
[13] = both sexes, oral, human plasma, multiple dose RLQ 8 g t.i.d. 7 d then single dose, means ± SD, read-out: Cmax
[14] = both sexes, human plasma, single oral dose RLQ 8 g, means ± SD, read-out: Cmax
[15] = human, plasma, oral, single dose RLQ 8 g, female subjects n = 6, read-out: Cmax in women
[16] = human, plasma, oral, single dose RLQ 8 g, male subjects n = 6, read-out: Cmax in men
[17] = multiple dose RLQ 8 g, median (range)

SMILES: O=C(O)c1cc(O)c(O)c(O)c1 [GA, gallic acid]
- time to absorption into the blood after administration ([1]; abstract summary, oral RLQ): ≤ 1 h
- AUC(0-inf) [1, 3]: 209 ± 63.5 ng·h/mL
- AUC(0-t) [1, 4]: 205 ± 62.8 ng·h/mL
- AUC(0-inf) [1, 5]: 256 ± 74.9 ng·h/mL
- AUC(0-t) [1, 6]: 251 ± 74.4 ng·h/mL
- Vd/F [1, 7]: 292 ± 113 L
- k el [1, 7]: 0.00015 s⁻¹
- half-life [1, 8]: 80.4 ± 19.2 min
- Vd/F [1, 9]: 241 ± 82.7 L
- k el [1, 9]: 0.000147 s⁻¹
- half-life [1, 10]: 82.2 ± 22.2 min
- tmax [1, 11]: 45 min
- half-life [1, 12]: < 120 min
- Cmax [1, 13]: 118 ± 39.5 ng/mL
- Cmax [1, 14]: 139 ± 49.4 ng/mL
- AUC(0-t) ([1]; female, human, plasma, oral, single dose RLQ 8 g, female subjects, read-out: AUC0–t in women): 301 ± 46.3 ng·h/mL
- Cmax [1, 15]: 176 ng/mL
- Cmax [1, 16]: 102 ng/mL
- AUC(0-t) ([1]; male, human, plasma, oral, single dose RLQ 8 g, male subjects, read-out: AUC0–t in men): 201 ± 63.3 ng·h/mL
- CL/F ([1]; multiple dose RLQ 8 g): 152 ± 51.6 L/h
- tmax [1, 17]: 0.75 (0.75, 1) h
- Vz/F and CL/F, females versus males ([1]; p < 0.05): significantly lower levels in females than in males
- CL/F ([1]; single dose RLQ 8 g): 124 ± 42.0 L/h
- fraction unbound ([2]; multiple dose RLQ 8 g): 0.107
- fraction unbound ([2]; single dose RLQ 8 g): ~0.086
- dose excreted [2]: ~10%
- amount recovered in urine within 24 h ([2]; single dose RLQ 8 g): 2.48 ± 1.34 mg

SMILES: O=C(O)c1ccc(O)c(O)c1 [PCA, protocatechuic acid]
- response in human plasma and urine samples ([1]; LC-MS/MS after oral RLQ): relatively high response
- time to absorption into the blood after administration ([1]; abstract summary, oral RLQ): ≤ 1 h
- accumulation ratio (AUCss/AUC0–t) ([1]; after multiple doses, median (range)): 1.04 (0.56–1.51)
- AUC(0-inf) [1, 3]: 3.09 ± 0.9 ng·h/mL
- AUC(0-t) [1, 4]: 2.81 ± 0.81 ng·h/mL
- AUC(0-inf) [1, 5]: 3.64 ± 1.35 ng·h/mL
- AUC(0-t) [1, 6]: 3.2 ± 1.17 ng·h/mL
- Vd/F [1, 7]: 139 ± 46.1 L
- k el [1, 7]: 0.000789 s⁻¹
- half-life [1, 8]: 15.6 ± 4.8 min
- Vd/F [1, 9]: 158 ± 101 L
- k el [1, 9]: 0.000672 s⁻¹
- half-life [1, 10]: 19.8 ± 8.4 min
- tmax [1, 11]: 19.8 min
- half-life [1, 12]: < 120 min
- Cmax [1, 13]: 5.45 ± 1.58 ng/mL
- Cmax [1, 14]: 6.06 ± 2.28 ng/mL
- Cmax [1, 15]: 7.58 ng/mL
- Cmax [1, 16]: 4.54 ng/mL
- CL/F ([1]; multiple dose RLQ 8 g): 379 ± 119 L/h
- tmax [1, 17]: 0.33 (0.17, 0.5) h
- CL/F ([1]; single dose RLQ 8 g): 337 ± 135 L/h
- mean urinary concentration ([2]; first 2 h after administration of RLQ 8 g): ~150 µg/L
- fraction unbound ([2]; single dose RLQ 8 g): ~0.042
- dose excreted [2]: ~5%
- amount recovered in urine within 24 h ([2]; single dose RLQ 8 g): 0.046 ± 0.040 mg
